The source of these data is ChEMBL document CHEMBL3407385, “Promiscuous 2-aminothiazoles (PrATs): a frequent hitting scaffold” (J Med Chem, 2015).

Active and inactive are the calls of the source. The calls are words filed in the database; no cut-off is given here.

The nature of test [1]: Binding affinity to oxidoreductase 1 (unknown origin) at 1.5 mM by HSQC-NMR analysis.
Test [2] deals with T1, SPRY domain-containing SOCS box protein 2 (Homo sapiens) (UniProt Q99619).
T1 sequence (whole entry): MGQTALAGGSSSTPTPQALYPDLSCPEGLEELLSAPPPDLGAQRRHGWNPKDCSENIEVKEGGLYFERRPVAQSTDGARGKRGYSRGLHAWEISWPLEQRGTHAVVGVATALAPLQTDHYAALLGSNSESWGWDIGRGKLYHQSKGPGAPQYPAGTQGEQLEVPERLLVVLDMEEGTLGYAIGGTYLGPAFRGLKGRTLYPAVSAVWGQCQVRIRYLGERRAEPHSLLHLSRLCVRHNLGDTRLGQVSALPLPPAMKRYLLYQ
Kind of test: Binding affinity to SPSB2 (unknown origin) at 3mM by 19F NMR method.

Test [3] is described as follows: Binding affinity to oxidoreductase 1 (unknown origin) at 1 mM by HSQC-NMR analysis.
Test [4] in a line: Binding affinity to oxidoreductase 1 (unknown origin) by STD-NMR analysis.

With `Nc1nc2cc3c(cc2s1)OCCO3`, in test [1], the result was Active.

On to `Nc1nc(-c2ccccc2)cs1`, for which the result in test [2], in test [3] and in test [4] was Active. On to `COc1ccc(-c2nc(N)sc2C)cc1`, for which the result in test [3] was Active. On the same count and under the same terms, next, `Cc1sc(N)nc1-c1ccccc1`: “Active”.
